The nature of data set [1]: Solid-state stability study under 40° C./75% RH (HPLC remaining % and purity). It counts as physicochemical. Conditions: 40° C./75% RH for 6 month; for Purity (Area %) Main peak: counterion area excluded. The procedure:
HPLC data are obtained by Waters Alliance 2695 HPLC system with 2996 PDA detector using the following conditions; • Column: Inertsil ODS-3 (3 microm, 4.6×150 mm), • Eluent: acetonitrile/10 mM ammonium acetate=32/68, • Detection: UV at 215 nm, • Flow rate: 1 mL/min, and • Column temperature: 40° C.
Solid-state stability study is performed using Nagano Science Constant temperature/humidity control chamber LH-20-11M or LH-21-11M. The sample is placed in the chamber and exposed under 40° C./75% RH. The crystalline form and thermal behavior of the resultant sample after the exposure are evaluated by PXRD and TG/DTA, respectively. The remaining % and the purity are determined by HPLC measurement.

Data set [2] is described as follows: Hygroscopicity study (storage at 90% RH, weighing and PXRD after five days). In kind it is physicochemical. Conditions: for PXRD (compared to intact bulk) / PXRD - overnight at ambient condition: after five days at 90% RH; for PXRD - overnight at ambient condition: then equilibrated at ambient temperature overnight; for Water uptake after 5 days: humidity chamber at 90% RH (BaCl2-2H2O), five days. The procedure:
The salt samples are weighed into aluminum crucibles, placed onto a sample holder, and stored in the humidity chamber at 90% RH (BaCl2-2H2O). The samples are visually inspected with a hand magnifying lens and weighed on an analytical balance after five days. The samples are analyzed by PXRD after five days, then allowed to equilibrate at ambient temperatures overnight and re-analyzed by PXRD to evaluate stability of suspected hydrates under ambient conditions.

Consider `O=C(O)C1(CN2CCC(COc3noc4cccc(OCC(F)(F)F)c34)CC2)CCOCC1` [Free form, 4-{[4-({[4-(2,2,2-trifluoroethoxy)-1,2-benzisoxazol-3-yl]oxy}methyl)piperidin-1-yl]methyl}tetrahydro-2H-pyran-4-carboxylic acid], for which, in data set [1], the “Assay Remaining %” value turned out to be 87% and the “Purity (Area %) Main peak” value came out at 95.6 Area %. Besides, in data set [2], the “PXRD (compared to intact bulk)” value is “different from the intact bulk”, the “PXRD - overnight at ambient condition” value is “no change” and the “Water uptake after 5 days” value was 16.7 wt %.
For the compound “4-{[4-({[4-(2,2,2-trifluoroethoxy)-1,2-benzisoxazol-3-yl]oxy}methyl)piperidin-1-yl]methyl}tetrahydro-2H-pyran-4-carboxylic acid hemi-ethanedisulfonate salt [EDSA-salt]”, in data set [1], the “Assay Remaining %” value amounted to 99% and the “Purity (Area %) Main peak” value stood at 100.0 Area %. Besides, in data set [2], the “PXRD (compared to intact bulk)” value is “same” and the “PXRD - overnight at ambient condition” value is “no change”.
On the same counts, the results for `Cc1ccc(S(=O)(=O)O)cc1.O=C(O)C1(CN2CCC(COc3noc4cccc(OCC(F)(F)F)c34)CC2)CCOCC1` [pTSA-salt, 4-{[4-({[4-(2,2,2-trifluoroethoxy)-1,2-benzisoxazol-3-yl]oxy}methyl)piperidin-1-yl]methyl}tetrahydro-2H-pyran-4-carboxylic acid p-toluenesulfonate salt] are 98%, 99.7 Area %, “same” and “no change”.
For `Cl.O=C(O)C1(CN2CCC(COc3noc4cccc(OCC(F)(F)F)c34)CC2)CCOCC1` [HCl-salt, 4-{[4-({[4-(2,2,2-trifluoroethoxy)-1,2-benzisoxazol-3-yl]oxy}methyl)piperidin-1-yl]methyl}tetrahydro-2H-pyran-4-carboxylic acid hydrochloride salt], in that order: 97%, 98.8 Area %, “same” and “no change”.
For `Br.O=C(O)C1(CN2CCC(COc3noc4cccc(OCC(F)(F)F)c34)CC2)CCOCC1` [HBr-salt, 4-{[4-({[4-(2,2,2-trifluoroethoxy)-1,2-benzisoxazol-3-yl]oxy}methyl)piperidin-1-yl]methyl}tetrahydro-2H-pyran-4-carboxylic acid hydrobromide salt], in that order: 99%, 99.9 Area %, “same” and “no change”.
On to `O=C([O-])C1(CN2CCC(COc3noc4cccc(OCC(F)(F)F)c34)CC2)CCOCC1.[Na+]` [sodium salt, 4-{[4-({[4-(2,2,2-trifluoroethoxy)-1,2-benzisoxazol-3-yl]oxy}methyl)piperidin-1-yl]methyl}tetrahydro-2H-pyran-4-carboxylic acid sodium salt], for which the “Water uptake after 5 days” value in data set [2] was “more than 40 wt %”.

The values are drawn from patent US9988370B2, “Benzisoxazole derivative salt” (RaQualia Pharma Inc., priority 2014, dated 2018).
